Tests used:
[1] = target: T1, human serum albumin (HSA) (Homo sapiens, UniProt P02768); assay: Albumin binding by tryptophan fluorescence quenching (HSA); conditions: for ΔΙ/Ιο, quenching of the HSA fluorescence: HSA 3 μM, λex 295 nm; for HSA-binding constant K: Scatchard equation; for HSA-quenching constant kq: from Stern–Volmer plots, τo 10^-8 s; for % relative HSA fluorescence emission intensity I/Io remaining (% of initial): final value, pH 7.0
T1 construct: purchased Sigma–Aldrich Co
Source text: (§1) Serum albumins are among the important proteins of the circulatory system. Their main role is to carry drugs and other bioactive small molecules through the bloodstream. BSA and HSA are structurally homologous albumins, having two and one tryptophan residues, respectively. The tryptophan residues of both albumins are responsible for the intense fluorescence emission band with λem,max = 342 nm for BSA and 350 nm for HSA, respectively, when their solutions are excited at 295 nm. […] The inner-filter effect was calculated with Equation (S4) and it was found too low to affect the measurements.
(§2) When the compounds were added to a solution of the albumins (3 μM), a significant quenching of the BSA (λem = 342 nm) and HSA (λem = 350 nm) fluorescence emission bands was observed (Figure 7) which was more pronounced in the case of BSA (Table 7 and Figure 8). […] The observed quenching may be ascribed to changes in the tryptophan environment of SA resulting from possible denaturation of their secondary structure, induced by the binding of the complexes to the albumins. […]
(§3) Io =1+ k τ [Q] =1+ K [Q] […]
(§4) S3Albumin -binding studies
(§5) In order to investigate if the compounds can bind to carrier proteins like serum albumins, we carried out albumin binding study by tryptophan fluorescence quenching experiments using bo vine serum albumin (BSA, 3 μM) in buffer (containing 15 mM trisodium citrate and 150 mM NaCl at pH 7.0). The quenching of the emission intensity of tryptophan residues of BSA at 343 nm was monitored using the co mpounds as que ncher s with increasing concentration [S4]. The fluo rescence emission spectra of the compounds were also recorded with λex = 295 nm. No fluorescence emission band was recorded and thus it was not related to the compounds . The influence of the inner-filter effect [S6] on the measurements wa s evaluated by equation S4.
(§6) Where Icorr = corrected intensity, Imeas = the measured intensity, c = the concentration of the quencher, d = the cuvette (1 cm), ε (λexc ) and ε(λe m) = the ε of the quencher at the excitation and the emission wavelength, respectively, as calculated from the UV-vis spectra of the […]
(§7) The Stern-Volmer and Scatchard graphs are used to study the interaction of the compounds with serum albumins. According to Stern-Volmer quenching equation (eq.
(§8) S2), where Io = the initial tryptophan fluorescence intensity of SA, I = the tryptophan fluorescence intensity of SA after the addition of the quencher, kq = the quenching […]
(§9) constant, KSV = the Stern-Volmer constant, τo = the average lifetime of SA without the quencher, and, tak ing as fluorescence lifet ime (τo) of tryptophan in SA at around 10-8 s [S 4] , KSV (in M -1) can be obtained by the slope of the diagram Io/I versus [compound] (Stern-Volmer plots), and subsequently the quenching (kq, in M -1s-1) may be calculated from eq.
(§10) From the Scatchard equation (eq. S5): […]
(§11) where n is the number of binding sites per albumin and K is the SA-binding constant (K, in M -1) is calculated from the slope in plots (ΔI/Io)/[complex] versus ΔI/Io and n is given by the ratio of y intercept to the slope [S7].
(§12) S1 Kontogiorgis, C.; Hadjipavlou–Lit ina, D. Biological Evaluat ion of Several Coumarin Derivatives Designed as Possible Anti–inflammatory/Antioxidant Agents. J. Enz. Inhib.
(§13) S2 Ruch, R.J.; Cheng, C.; Klaunig, J.E. Prevention of cytotoxicity and inhibition of intercellular communication by antioxidant catechins isolated from Chinese green tea.
(§14) S3 Wolfe, A.; Shimer, G.; Meehan, T. Polycyclic Aromatic Hydrocarbons Physically Intercalate into Duplex Regions of Denatured DNA. Biochemistry 1987, 26, 6392–6396.
(§15) S4 Lakowicz, J.R. Principles of Fluorescence Spectroscopy , 3rd ed.; Plenum Press: New […]
(§16) S5 Heller, D.P.; Greenstock, C.L. Fluorescence lifetime analysis of DNA intercalated ethid ium bromide and quench ing by free dye. Biophys. Chem.1994,50, 305–312.
(§17) S6 Stella, L.; Capodilupo, A.L.; Bietti, M. A reassessment of the association between […]
(§18) azulene and [60]fullerene. […]

[2] = target: T2, bovine serum albumin (BSA) (Bos taurus, UniProt P02769); assay: Albumin binding by tryptophan fluorescence quenching (BSA); conditions: for ΔΙ/Ιο, quenching of the BSA fluorescence: BSA 3 μM, λex 295 nm; for BSA-binding constant K: Scatchard equation; for BSA-quenching constant kq: from Stern–Volmer plots, τo 10^-8 s; for % relative BSA fluorescence emission intensity I/Io remaining (% of initial): final value, pH 7.0
T2 construct: purchased Sigma–Aldrich Co
T2 sequence (P02769 25-607): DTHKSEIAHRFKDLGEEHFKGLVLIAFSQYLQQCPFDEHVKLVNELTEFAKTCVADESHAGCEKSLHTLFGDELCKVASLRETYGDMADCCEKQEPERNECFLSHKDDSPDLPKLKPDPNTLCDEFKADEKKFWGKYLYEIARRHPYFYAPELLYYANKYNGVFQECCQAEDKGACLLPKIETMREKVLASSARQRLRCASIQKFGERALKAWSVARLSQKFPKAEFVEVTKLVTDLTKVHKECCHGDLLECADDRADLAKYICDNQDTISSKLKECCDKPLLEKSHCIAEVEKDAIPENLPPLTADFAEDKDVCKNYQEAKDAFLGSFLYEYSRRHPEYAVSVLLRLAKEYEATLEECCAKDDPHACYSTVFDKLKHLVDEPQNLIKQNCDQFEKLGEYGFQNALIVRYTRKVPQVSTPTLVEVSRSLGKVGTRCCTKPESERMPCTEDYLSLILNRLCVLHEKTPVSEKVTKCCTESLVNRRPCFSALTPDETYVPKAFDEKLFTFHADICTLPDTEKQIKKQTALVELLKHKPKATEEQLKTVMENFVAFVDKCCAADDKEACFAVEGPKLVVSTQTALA
Source text: as §1, §2, §3, §4, §5, §6, §7, §8, §9, §10, §11, §12, §13, §14, §15, §16, §17, §18

[3] = ABTS radical cation scavenging assay; type: biochemical; conditions: compound 0.1 mM, 1 min
Source text: For the above reasons, the antioxidant ability of 5–F–saloH and Cu(II) complexes 1–5 has been evaluated via their scavenging activity towards DPPH and ABTS radicals, as well as the ability to reduce H2O2, and in comparison with that of well-known antioxidant agents such as nordihydroguaiaretic acid (NDGA), butylated hydroxytoluene (ΒHΤ), 6–hydroxy–2,5,7,8–tetramethylchromane–2–carboxylic acid (trolox) and L–ascorbic acid (these are the most commonly used standard reference antioxidant agents). The DPPH-radical assay was developed in the 1950s and this method has been used to assess the antioxidant capacity of several metal complexes. The DPPH–scavenging ability of compounds has often been related to their ability to prevent ageing, cancer and inflammation. The ability of a compound to scavenge the cationic ABTS radicals (ABTS^+●) has been considered a measure of its total antioxidant activity. Further, hydrogen peroxide has the ability to penetrate biological membranes and, although it is not very reactive itself, it can sometimes be toxic since it may give rise to hydroxyl radicals in cells. For this reason, the removal of H2O2 is very important for the protection of living systems. When a compound is incubated with H2O2 using a peroxidase assay system, the loss of H2O2 can be measured.
S1 Antioxidant activity assay
The antioxidant activity of the compounds was evaluated via their ability to scavenge in vitro free radicals such as DPPH and ABTS and to reduce H 2O2. All the experiments were carried out at least in triplicate and the standard deviation of absorbance was less than 10% of the mean. […]
S1.2 Assay of radical cation ABTS-scavengin g activity
The ABTS assay was performed to determine the activity of the compounds to scavenge the radical cation ABTS. Initially, a water solution of ABTS was prepared (2 mM). ABTS radical cation (ABTS+·) was produced by the reaction of ABTS stock solution with potassium persulfate (0.17 mM) and the mixture was stored in the dark at room temperature for 12-16 h before its use. The ABTS was oxidized incompletely because the stoichiometric reaction ratio of ABTS and potassium persulfate is 1:0.5. The absorbance became maximal and stable only after more than 6 h of reaction although the oxidation of the ABTS started immediately. The radical was stable in this form for more than 2 days when allowed to stand in the dark at room temperature. Afterwards, the ABTS+· solution was diluted in ethanol to an absorbance of 0.70 at 734 nm and 10 μL of diluted compounds or standards (0.1 mM) in DMSO were added. The absorbance was recorded out exactly 1 min after init ial m ix in g [S 1]. The ABTS radical scavenging act ivit y was expressed as the percentage inhibition of the absorbance of the initial ABTS solution (ABTS%). Trolox was used as an appropriate standard. […]

T1 sequence (P02768 25-609): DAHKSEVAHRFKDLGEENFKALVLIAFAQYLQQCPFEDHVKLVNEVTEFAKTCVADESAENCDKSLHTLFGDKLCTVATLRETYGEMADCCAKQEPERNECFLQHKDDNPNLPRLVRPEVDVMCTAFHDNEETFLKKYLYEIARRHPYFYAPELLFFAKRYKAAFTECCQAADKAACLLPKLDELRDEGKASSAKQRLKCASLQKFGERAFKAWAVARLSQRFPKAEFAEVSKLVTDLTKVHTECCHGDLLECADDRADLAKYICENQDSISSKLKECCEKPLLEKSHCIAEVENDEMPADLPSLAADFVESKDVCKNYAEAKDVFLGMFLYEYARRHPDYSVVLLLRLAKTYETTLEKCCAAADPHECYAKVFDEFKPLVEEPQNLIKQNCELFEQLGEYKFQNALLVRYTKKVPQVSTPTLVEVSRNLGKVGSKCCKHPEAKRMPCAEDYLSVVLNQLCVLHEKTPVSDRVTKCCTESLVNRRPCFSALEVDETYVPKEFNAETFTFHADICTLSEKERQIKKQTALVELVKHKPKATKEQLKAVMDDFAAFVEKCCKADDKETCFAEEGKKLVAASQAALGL

O=Cc1cc(F)ccc1[O-].O=[N+]([O-])[O-].[Cu+2].c1ccc(-c2ccccn2)nc1 [Complex 5, [Cu(5–F–salo)(bipy)(NO3)]]
ΔΙ/Ιο, quenching of the HSA fluorescence [1]: 63.0% | HSA-binding constant K [1]: 1.31 (±0.05) × 10^6 M^−1 | HSA-quenching constant kq [1]: 3.01 (±0.10) × 10^12 M^−1 s^−1 | ΔΙ/Ιο, quenching of the BSA fluorescence [2]: 68.3% | BSA-binding constant K [2]: 3.23 (±0.12) × 10^5 M^−1 | BSA-quenching constant kq [2]: 1.87 (±0.09) × 10^13 M^−1 s^−1 | ABTS%, % ABTS–scavenging activity [3]: 7.36 ± 0.08%

O=Cc1cc(F)ccc1[O-].[Cl-].[Cu+2].c1ccc(Nc2ccccn2)nc1 [Complex 2, [Cu(5–F–salo)(bipyam)Cl]]
ΔΙ/Ιο, quenching of the HSA fluorescence [1]: 62.7% | % relative HSA fluorescence emission intensity I/Io remaining (% of initial) [1]: 37.3% | HSA-binding constant K [1]: 5.09 (±0.29) × 10^5 M^−1 | HSA-quenching constant kq [1]: 6.27 (±0.21) × 10^12 M^−1 s^−1 | ΔΙ/Ιο, quenching of the BSA fluorescence [2]: 54.0% | % relative BSA fluorescence emission intensity I/Io remaining (% of initial) [2]: 46.0% | BSA-binding constant K [2]: 3.15 (±0.18) × 10^4 M^−1 | BSA-quenching constant kq [2]: 6.49 (±0.14) × 10^12 M^−1 s^−1 | ABTS%, % ABTS–scavenging activity [3]: 48.89 ± 0.38%

O=Cc1cc(F)ccc1[O-].O=[N+]([O-])[O-].[Cu+2].c1cnc2c(c1)ccc1cccnc12 [Complex 4, [Cu(5–F–salo)(phen)(NO3)]]
ΔΙ/Ιο, quenching of the HSA fluorescence [1]: 74.6% | % relative HSA fluorescence emission intensity I/Io remaining (% of initial) [1]: 25.5% | HSA-binding constant K [1]: 1.70 (±0.09) × 10^6 M^−1 | HSA-quenching constant kq [1]: 8.63 (±0.33) × 10^12 M^−1 s^−1 | ΔΙ/Ιο, quenching of the BSA fluorescence [2]: 75.3% | % relative BSA fluorescence emission intensity I/Io remaining (% of initial) [2]: 24.7% | BSA-binding constant K [2]: 2.35 (±0.10) × 10^5 M^−1 | BSA-quenching constant kq [2]: 1.62 (±0.06) × 10^13 M^−1 s^−1 | ABTS%, % ABTS–scavenging activity [3]: 48.14 ± 0.35%

O=Cc1cc(F)ccc1[O-].O=Cc1cc(F)ccc1[O-].[Cu+2] [Complex 1, [Cu(5–F–salo)2]]
ΔΙ/Ιο, quenching of the HSA fluorescence [1]: 61.3% | % relative HSA fluorescence emission intensity I/Io remaining (% of initial) [1]: 38.7% | HSA-binding constant K [1]: 1.58 (±0.09) × 10^5 M^−1 | HSA-quenching constant kq [1]: 4.37 (±0.18) × 10^12 M^−1 s^−1 | ΔΙ/Ιο, quenching of the BSA fluorescence [2]: 62.5% | % relative BSA fluorescence emission intensity I/Io remaining (% of initial) [2]: 37.5% | BSA-binding constant K [2]: 4.05 (±0.02) × 10^4 M^−1 | BSA-quenching constant kq [2]: 9.38 (±0.28) × 10^12 M^−1 s^−1 | ABTS%, % ABTS–scavenging activity [3]: 78.89 ± 0.18%

CO.Cc1ccc2ccc3ccc(C)nc3c2n1.O=Cc1cc(F)ccc1[O-].[Cl-].[Cu+2] [Complex 3, [Cu(5–F–salo)(neoc)Cl].CH3OH]
ΔΙ/Ιο, quenching of the HSA fluorescence [1]: 68.5% | % relative HSA fluorescence emission intensity I/Io remaining (% of initial) [1]: 31.5% | HSA-binding constant K [1]: 7.16 (±0.40) × 10^5 M^−1 | HSA-quenching constant kq [1]: 1.25 (±0.05) × 10^13 M^−1 s^−1 | ΔΙ/Ιο, quenching of the BSA fluorescence [2]: 84.3% | % relative BSA fluorescence emission intensity I/Io remaining (% of initial) [2]: 15.7% | BSA-binding constant K [2]: 2.51 (±0.10) × 10^5 M^−1 | BSA-quenching constant kq [2]: 2.75 (±0.10) × 10^13 M^−1 s^−1 | ABTS%, % ABTS–scavenging activity [3]: 46.03 ± 0.60%

— publication PMC9782626, “Copper(II) Complexes of 5–Fluoro–Salicylaldehyde: Synthesis, Characterization, Antioxidant Properties, Interaction with DNA and Serum Albumins” (Molecules, 2022)
